Test results as given in US20250304914A1, “METHODS OF PRODUCING ENGINEERED IMMUNE CELLS” (Takeda Pharmaceutical Company Limited, priority 2022, published 2025).

How the values were obtained:
Assay type in all cases: cell-based
[1] = test system: T cells; assay: Rate of introduction of the CAR gene into T cells by flow cytometry (CAR-T production); conditions: for CAR-positive rate: 0.0037%, 0.011%
Description: (§1) CAR-T cell culture medium: 2.6% OpTmizer Expansion Basal Supplement (Thermo Fisher Scientific), 1% L-Glutamine (Thermo Fisher Scientific), and 1% Streptomycine, 2% CTS Immune Cell SR (Thermo Fisher Scientific) were added to OpTmizer CTS T-Cell Expansion basal medium (Thermo Fisher Scientific) to prepare a basal cell culture medium. To this was added 20 IU/mL or 40 IU/mL of MACS GMP IL-2 (Miltenyi Biotec). Dimethyl Sulfoxide (DMSO) (Wako Pure Chemical Industries, Ltd) was added to the respective media to obtain the designated levels and used. After Leukopak (Hemacare) was thawed, the cells were diluted in CAR-T cell culture medium to less than or equal to 2.0×10^6 cells/mL (pre-production raw material). Cell suspension: MACS GMP T-Cell TransACT (Miltenyi Biotec)=17.5:1 were seeded in culture bags and cultured in about 48 hours (cell activation step). The activated cells were diluted in culture medium using a LOVO Cell processing system (Fresenius Kabi) or a centrifuge, seeded under 6.07×10^5 cells/cm^2 in culture bags that had been previously coated with Retronectin® (Takara Bio Co., Ltd.) and a retrovirus into which a CAR gene or a CAR gene, a IL-7 gene, and a CCL19 gene had been introduced, and cultured until the next day (gene transfer process). Culture bottles (G-REX, Wilson Wolf) were seeded under 2.2×10^6 cells/cm^2 and cultured for 3-7 days to produce CAR-T cells (final products). The CAR gene used has the base sequence encoding the amino acid sequence shown in SEQ ID NO: 1, IL-7 gene used has the base sequence encoding the amino acid sequence shown in SEQ ID NO: 2, and CCL19 gene used has the base sequence encoding the amino acid sequence shown in SEQ ID NO: 3 (the same applies to the following SK-HEP-1 cells). See Table 1 for the afore mentieond sequences. CAR introduction rates into T cells were determined using CAR-targeting antigens on a BD FACSCanto II flow cytometer (BD Biosciences). The immunophenotype of T cells was measured using an anti-CD4 antibody (clone SK3, cat #344604, BioLegend), an anti-CD8 antibody (clone SK1, cat #344710, BioLegend), an anti-CCR7 antibody (clone G043H7, cat #353204, BioLegend), an anti-CD45RA antibody (clone L48, cat #337167, BD Biosciences), an anti-CD27 antibody (clone 0323, cat #302836, BioLegend), and an anti-CD95 antibody (clone DX2, cat #305612, BioLegend), and CCR7/CD45RA/CD27/CD95 positive cells in a CD4 positive or CD8 positive T cell population were used as stem cell memory T cells, and CCR7/CD45RA positive cells other than these were used as naive T cells.

[2] = test system: T cells; assay: Immune phenotype of T cells by flow cytometry (naive and stem cell memory T cells, CAR-T production)
Description: as §1

[3] = test system: SK-HEP-1 cells; assay: Introduction of CAR gene into SK-HEP-1 cells, flow cytometry; conditions: Example 8, 0.1% DMSO in transduction step, FIG. 8A
Description: SK-HEP-1 cell culture medium: MEM, L-Gln (+) (Thermo Fisher Scientific) was prepared by adding 10% FBS (Biosera Co., Ltd.), 1% Non-essential amino acids (Fujifilm Wako Pure Chemical Industries, Ltd.), 1% Penicillin-Streptomycin solution (Fujifilm Wako Pure Chemical Industries, Ltd.), and 1 mM Sodium pyruvate (Fujifilm Wako Pure Chemical Industries, Ltd.). Dimethyl Sulfoxide (DMSO) (Wako Pure Chemical Industries, Ltd) was added to the respective media to obtain the designated levels and used. SK-HEP-1 cells (ATCC) were diluted with SK-HEP-1 cell culture medium so that they were 2.0×10^6 cells/mL or less, seeded under 6.07×10^5 cells/cm^2 on culture plates that had been coated with retronectin (Takara Bio Co., Ltd.) and a retrovirus into which a CAR gene had been introduced, and cultured for 4 days to introduce the CAR gene into SK-HEP-1 cells. CAR-T cells were produced as described above. SK-Hep-1 cell expressing CAR were produced as discussed above. 0.1% DMSO was added in the transduction_step during its production. After production, the rate of introduction of the CAR-gene was measured by flow cytometry.

[4] = test system: NK92 cells; assay: Introduction of mCherry gene into NK92 cells, flow cytometry
Description: NK92 cell culture medium: RPMI, L-Gln (+) (Thermo Fisher Scientific) was prepared by adding 20% FBS (Biosera Co., Ltd.). Dimethyl Sulfoxide (DMSO) (Wako Pure Chemical Industries, Ltd) was added to the respective media to obtain the designated levels and used. NK92 cells (ATCC) were diluted with NK92 cell culture medium so that they were 2.0×10^6 cells/mL or less, seeded under 6.07×10^5 cells/cm^2 on culture plates with or without DMSO for 2 days. After that, NK92 cells were cultured on retronectin (Takara Bio Co., Ltd.) and a retrovirus into which a mCherry gene had been introduced, and cultured for 2 days to introduce the mCherry gene into NK92 cells. mCherry positive NK92 cells were produced as described above. DMSO from 0.01% to 0.1% was added in the pre-cultre step before transduction during its production. After production, the rate of introduction of the mCherry-gene was measured by flow cytometry.

[5] = Example 1, armored, activation step, 0.0037%, 0.011%, 0.033%, 0.1% DMSO vs no DMSO
[6] = Example 1, armored, activation step, 0.011%, 0.033%, 0.1% DMSO vs no DMSO
[7] = Example 3, armored, transduction step, 0.011%, 0.033%, 0.1%, 0.3% DMSO vs no DMSO
[8] = Example 6, unarmored, ex vivo expansion step, 0.3% DMSO vs no DMSO
[9] = Example 7, unarmored, ex vivo expansion step, 0.6-2.7% DMSO vs no DMSO

## C[S+](C)[O-] [DMSO, dimethyl sulfoxide]
[1]; Example 1, CAR-T expressing IL-7 and CCL19 (armored), 0.033%, 0.1% DMSO in activation step (heading, FIG. 1; text says transduction step), vs no DMSO group
  CAR-positive rate: significantly increased
[1]; Example 2, CAR-T (unarmored), 0.033%, 0.1%, 0.3% DMSO in activation step (heading, FIG. 2; text says transduction step), vs no DMSO group
  CAR-positive rate: significantly increased
[1]; Example 3, armored (IL-7, CCL19), gene transduction step, 0.033%, 0.1% DMSO vs no DMSO group
  CAR-positive rate: significantly increased
[1]; Example 4, unarmored, gene transduction step, 0.033% DMSO vs no DMSO group
  CAR-positive rate: increased
[1]; Example 8, 0.1% DMSO in transduction step, FIG. 8B
  CAR transduction efficiency (CAR-T): significantly improves
[2]; [5]
  CD8 positive naive T cells: significantly increased
  CD8 positive stem cell memory T cells: significantly increased
[2]; [6]
  CD4 positive naive T cells: significantly increased
  CD4 positive stem cell memory T cells: significantly increased
[2]; Example 2, unarmored, activation step, 0.0037%, 0.011%, 0.033%, 0.1%, 0.3% DMSO vs no DMSO
  CD4 positive stem cell memory T cells: significantly increased
[2]; Example 2, unarmored, activation step, 0.1% and 0.3% DMSO vs no DMSO
  CD8 positive stem cell memory T cells: significantly increased
[2]; Example 3, armored, transduction step, 0.0037%, 0.011%, 0.033%, 0.1% DMSO vs no DMSO
  CD8 positive stem cell memory T cells: increased
[2]; Example 3, armored, transduction step, 0.011% and 0.033% DMSO vs no DMSO
  CD8 positive naive T cells: increased
[2]; [7]
  CD4 positive naive T cells: significantly increased
  CD4 positive stem cell memory T cells: significantly increased
[2]; Example 4, unarmored, transduction step, 0.0037%, 0.011%, 0.033%, 0.01% and 0.3% DMSO vs no DMSO
  CD8 positive stem cell memory T cells: increased
[2]; Example 4, unarmored, transduction step, 0.011% and 0.033% DMSO vs no DMSO
  CD4 positive naive T cells: increased
[2]; Example 5, armored, ex vivo expansion step, 0.3% DMSO vs no DMSO
  CD8 positive stem cell memory T cells: significantly increased
[2]; [8]
  CD4 positive naive T cells: increased
  CD4 positive stem cell memory T cells: increased
[2]; [9]
  CD4 positive naive T cells: increased
  CD4 positive stem cell memory T cells: increased
  CD8 positive naive T cells: increased
  CD8 positive stem cell memory T cells: increased
[3]
  CAR gene transduction in SK-Hep-1: suppresses
[4]; Example 9, NK92 cells, 0.03% and 0.1% DMSO in pre-culture step 2 days before transduction, FIG. 9B
  mCherry transduction efficiency: significantly improves
[4]; FIG. 9B legend, 0.01%-0.1% DMSO added in preculture step before transduction
  transduction efficiency in NK92 cells (mCherry positive cells): improved
